Patent publication US8754054B2, “Antibacterial compounds, methods of making them, and uses thereof” (Albany Molecular Research, Inc., priority 2010, dated 2014)
Values after ≈ are worked out from the molar mass of the structure shown. Like-named read-outs stand apart in the source and are kept apart here.

System: MRSA 43300
Test: Antibacterial activity, NCCLS dilution method (Table 9)
Type: cell-based, S. aureus
Conditions: Staphylococcus aureus, MRSA, read-out: MRSA 43300 MIC
Text: NCCLS standards for antimicrobial susceptibility testing using the dilution method were followed. See: Performance Standards for Antimicrobial Susceptibility Testing; Fourteenth Informational Supplement. NCCLS Document M100-S14 (ISBN 1-56238-516-X), 2004. NCCLS, 940 West Valley Road, Suite 1400, Wayne, Pa. 19087-1898 USA, 2004; Methods for Dilution Antimicrobial Susceptibility Tests for Bacteria that Grow Aerobically; Approved Standard—Sixth Edition. NCCLS document M7-A6 (IBSBN 1-56238-486-4), NCCLS, 940 West Valley Road, Suite 1400, Wayne, Pa. 19087-1898 USA, 2003, which are hereby incorporated by reference in their entirety.

[1] = MRSA 43300, dilution method, labels marked a tested as a mixture of diastereomers

Structure (SMILES) | MIC [1] [µg/mL] | MIC [µg/mL]
CO[C@@H]1[C@@H](O)[C@@H](OC)C(NC2=CC(=O)c3c(cc4c(c3O)C(=O)[C@]3(OC)[C@H](O)Cc5cc(C)c(C(=O)OCc6ccccc6)c(O)c5[C@]3(O)C4=O)C2=O)O[C@H]1C (mixture of isomers) [Example 37, (6R,6aS,14aR)-Benzyl 1,6,8,14a-tetrahydroxy-11-((3R,4R,5R,6S)-4-hydroxy-3,5-dimethoxy-6-methyltetrahydro-2H-pyran-2-ylamino)-6a-methoxy-3-methyl-7,9,12,14-tetraoxo-5,6,6a,7,9,12,14,14a-octahydrobenzo[a]tetracene-2-carboxylate] | 0.25 (≈ 0.323 µM) | 
CNC(=O)c1c(C)cc2c(c1O)[C@]1(O)C(=O)c3cc4c(c(O)c3C(=O)[C@]1(OC)[C@H](O)C2)C(=O)C=C(NC1O[C@@H](C)[C@H](OC)[C@@H](O)[C@H]1OC)C4=O (mixture of isomers) [Example 19, (6R,6aS,14aR)-1,6,8,14a-Tetrahydroxy-11-((3R,4R,5R,6S)-4-hydroxy-3,5-dimethoxy-6-methyltetrahydro-2H-pyran-2-ylamino)-6a-methoxy-N,3-dimethyl-7,9,12,14-tetraoxo-5,6,6a,7,9,12,14,14a-octahydrobenzo[a]tetracene-2-carboxamide] | 2 (≈ 2.87 µM) | 
COCCC/N=C1\C=C(N[C@H]2O[C@@H](C)[C@H](OC)[C@@H](O)[C@H]2OC)C(=O)c2cc3c(c(O)c21)C(=O)[C@]1(OC)[C@H](O)Cc2cc(C)c(C(=O)OC)c(O)c2[C@]1(O)C3=O [Example 47, (6R,6aS,14aR,E)-Methyl 1,6,8,14a-tetrahydroxy-11-((2S,3R,4R,5R,6S)-4-hydroxy-3,5-dimethoxy-6-methyltetrahydro-2H-pyran-2-ylamino)-6a-methoxy-9-(3-methoxypropylimino)-3-methyl-7,12,14-trioxo-5,6,6a,7,9,12,14,14a-octahydrobenzo[a]tetracene-2-carboxylate] | 1 to 2 (≈ 1.3 to 2.6 µM) | 
COC(=O)c1c(C)cc2c(c1OCc1cccnc1)[C@]1(O)C(=O)c3cc4c(c(O)c3C(=O)[C@]1(OC)[C@H](O)C2)C(=O)C=C(N[C@H]1O[C@@H](C)[C@H](OC)[C@@H](O)[C@H]1OC)C4=O.Cl [Example 11, (6R,6aS,14aR)-Methyl 6,8,14a-trihydroxy-11-((2S,3R,4R,5R,6S)-4-hydroxy-3,5-dimethoxy-6-methyltetrahydro-2H-pyran-2-ylamino)-6a-methoxy-3-methyl-7,9,12,14-tetraoxo-1-(pyridin-3-ylmethoxy)-5,6,6a,7,9,12,14,14a-octahydrobenzo[a]tetracene-2-carboxylate hydrochloride] | 0.12 to 0.25 | 
CO[C@@H]1[C@@H](O)[C@@H](OC)C(NC2=CC(=O)c3c(cc4c(c3O)C(=O)[C@]3(OC)[C@H](O)Cc5cc(C)c(C(=O)NCc6ccc(Cl)cc6)c(O)c5[C@]3(O)C4=O)C2=O)O[C@H]1C (mixture of isomers) [Example 27, (6R,6aS,14aR)—N-(4-Chlorobenzyl)-1,6,8,14a-tetrahydroxy-11-((3R,4R,5R,6S)-4-hydroxy-3,5-dimethoxy-6-methyltetrahydro-2H-pyran-2-ylamino)-6a-methoxy-3-methyl-7,9,12,14-tetraoxo-5,6,6a,7,9,12,14,14a-octahydrobenzo[a]tetracene-2-carboxamide] | 8 (≈ 9.91 µM) | 
C/N=C1\C=C(N[C@H]2O[C@@H](C)[C@H](OC)[C@@H](O)[C@H]2OC)C(=O)c2cc3c(c(O)c21)C(=O)[C@]1(OC)[C@H](O)Cc2cc(C)c(C(=O)OC)c(O)c2[C@]1(O)C3=O [Example 44, (6R,6aS,14aR,E)-Methyl 1,6,8,14a-tetrahydroxy-11-((2S,3R,4R,5R,6S)-4-hydroxy-3,5-dimethoxy-6-methyltetrahydro-2H-pyran-2-ylamino)-6a-methoxy-3-methyl-9-(methylimino)-7,12,14-trioxo-5,6,6a,7,9,12,14,14a-octahydrobenzo[a]tetracene-2-carboxylate] | 1 to 2 (≈ 1.41 to 2.81 µM) | 
COC(=O)c1c(C)cc2c(c1O)[C@]1(O)C(=O)c3cc4c(c(O)c3C(=O)[C@]1(OC)[C@H](O)C2)C(=O)C=C(N[C@H]1O[C@@H](C)[C@H](OC)[C@@H](O[C@@H]2O[C@H](CO)[C@@H](O)[C@H](O)[C@H]2O)[C@H]1OC)C4=O [Example 54, (6R,6aS,14aR)-Methyl 11-((2S,3R,4R,5S,6S)-3,5-dimethoxy-6-methyl-4-((2S,3R,4S,5S,6R)-3,4,5-trihydroxy-6-(hydroxymethyl)tetrahydro-2H-pyran-2-yloxy)tetrahydro-2H-pyran-2-ylamino)-1,6,8,14a-tetrahydroxy-6a-methoxy-3-methyl-7,9,12,14-tetraoxo-5,6,6a,7,9,12,14,14a-octahydrobenzo[a]tetracene-2-carboxylate] | 2 (≈ 2.33 µM) | 
CO[C@@H]1[C@@H](O)[C@@H](OC)C(NC2=CC(=O)c3c(cc4c(c3O)C(=O)[C@]3(OC)[C@H](O)Cc5cc(C)c(C(=O)NCCO)c(O)c5[C@]3(O)C4=O)C2=O)O[C@H]1C (mixture of isomers) [Example 24, (6R,6aS,14aR)-1,6,8,14a-Tetrahydroxy-11-((3R,4R,5R,6S)-4-hydroxy-3,5-dimethoxy-6-methyltetrahydro-2H-pyran-2-ylamino)-N-(2-hydroxyethyl)-6a-methoxy-3-methyl-7,9,12,14-tetraoxo-5,6,6a,7,9,12,14,14a-octahydrobenzo[a]tetracene-2-carboxamide] | 32 (≈ 44 µM) | 
COC(=O)c1c(C)cc2c(c1O)[C@]1(O)C(=O)c3cc4c(c(O)c3C(=O)[C@]1(OC)[C@H](O)C2)C(=O)C=C(N[C@H]1O[C@@H](C)[C@H](OC)[C@@H](O)[C@H]1OC)C4=O [Example 2, (6R,6aS,14aR)-methyl 1,6,8,14a-tetrahydroxy-11-((2S,3R,4R,5R,6S)-4-hydroxy-3,5-dimethoxy-6-methyltetrahydro-2H-pyran-2-ylamino)-6a-methoxy-3-methyl-7,9,12,14-tetraoxo-5,6,6a,7,9,12,14,14a-octahydrobenzo[a]tetracene-2-carboxylate] | 0.008 (≈ 0.0115 µM) | 
COC(=O)c1c(C)cc2c(c1O)[C@]1(O)C(=O)c3cc4c(c(O)c3C(=O)[C@]1(OC)[C@H](O)C2)C(=O)C=C(N[C@H]1O[C@@H](C)[C@H](OC)[C@@H](O)[C@H]1OC)C4(O)c1ccccc1 (single isomer, unassigned) [Example 56] | 8 (≈ 10.3 µM) | 
COC(=O)COc1c(C(=O)OC)c(C)cc2c1[C@]1(O)C(=O)c3cc4c(c(O)c3C(=O)[C@]1(OC)[C@H](O)C2)C(=O)C=C(N[C@H]1O[C@@H](C)[C@H](OC)[C@@H](O)[C@H]1OC)C4=O [Example 6, (6R,6aS,14aR)-Methyl 6,8,14a-trihydroxy-11-((2S,3R,4R,5R,6S)-4-hydroxy-3,5-dimethoxy-6-methyltetrahydro-2H-pyran-2-ylamino)-6a-methoxy-1-(2-methoxy-2-oxoethoxy)-3-methyl-7,9,12,14-tetraoxo-5,6,6a,7,9,12,14,14a-octahydrobenzo[a]tetracene-2-carboxylate] | 0.12 (≈ 0.156 µM) | 
COC(=O)c1c(C)c(N)c2c(c1O)[C@]1(O)C(=O)c3cc4c(c(O)c3C(=O)[C@]1(OC)[C@H](O)C2)C(=O)C=C(N[C@H]1O[C@@H](C)[C@H](OC)[C@@H](O)[C@H]1OC)C4=O [Example 42, (6R,6aS,14aR)-Methyl 4-amino-1,6,8,14a-tetrahydroxy-11-((2S,3R,4R,5R,6S)-4-hydroxy-3,5-dimethoxy-6-methyltetrahydro-2H-pyran-2-ylamino)-6a-methoxy-3-methyl-7,9,12,14-tetraoxo-5,6,6a,7,9,12,14,14a-octahydrobenzo[a]tetracene-2-carboxylate 2,2,2-trifluoroacetate] |  | 2 to 4 (≈ 2.81 to 5.61 µM)
